Experiment in all cases: Fluorimetric PPyrPM assay for group 1B PLA2 inhibition (Example 12)
What all share (type): biochemical

Test [1] deals with T1, porcine group 1B PLA2 (pps PLA2) (Sus scrofa, UniProt P00592).
T1 construct: purchased
Particulars: porcine pancreas secreted PLA2; for IC50: read-out: ILYPSA IC50 pps PLA2; for inhibition at 15 µM: read-out: ILYPSA % inhibition at 15 μM pps PLA2. The text has this: (§1) In this example, a fluorimetric assay procedure was used to evaluate the indole and indole-related compounds of the invention as inhibitors of group 1B phospholipase A2 (PLA2) from human, mouse and porcine. A description of this assay is found in articles: Leslie, C C and Gelb, M H (2004) Methods in Molecular Biology “Assaying phospholipase A2 activity”, 284:229-242; Singer, A G, et al. (2002) Journal of Biological Chemistry “Interfacial kinetic and binding properties of the complete set of human and mouse groups I, II, V, X, and XII secreted phospholipases A2”, 277:48535-48549, which are incorporated herein as references.
(§2) In general, this assay used a phosphatidylmethanol substrate with a pyrene fluorophore on the terminal end of the sn-2 fatty acyl chain. Without being bound by theory, close proximity of the pyrenes from neighboring phospholipids in a phospholipid vesicle caused the spectral properties to change relative to that of monomeric pyrene. Bovine serum albumin was present in the aqueous phase and captured the pyrene fatty acid when it is liberated from the glycerol backbone owing to the PLA2-catalyzed reaction. However, a potent inhibitor can inhibit the liberation of pyrene fatty acid from the glycerol backbone. […] The effect of a given inhibitor and inhibitor concentration on human, mouse and porcine phospholipase was determined.
(§3) The following reagents and equipments were obtained from commercial vendors: • 1. Porcine group 1B phospholipase A2 • 2. 1-hexadecanoyl-2-(1-pyrenedecanoyl)-sn-glycero-3-phosphomethanol (PPyrPM) • 3. Bovine serum albumin (BSA, fatty acid free) • 4. 2-Amino-2-(hydroxymethyl)-1,3-propanediol, hydrochloride (Tris-HCl) • 5. Calcium chloride • 6. Potassium chloride • 7. Solvents: DMSO, toluene, isopropanol, ethanol • 8. Molecular Devices SPECTRAmax microplate spectrofluorometer • 9. Costar 96 well black wall/clear bottom plate
(§4) The following reagents were prepared: • 10. PPyrPM stock solution (1 mg/ml) in toluene:isopropanol (1:1) • 11. ILY104 inhibitor stock solution (10 mM) in DMSO • 12. 3% (w/v) bovine serum albumin (BSA) • 13. Stock buffer: 50 mM Tris-HCl, pH 8.0, 50 mM KCl and 1 mM CaCl2
The following procedure was performed to evaluate the inhibitory potency of the evaluated compounds. • 14. An assay buffer was prepared by adding 3 ml 3% BSA to 47 ml stock buffer. • 15. Solution A was prepared by adding serially diluted inhibitors to the assay buffer. Inhibitors were three-fold diluted in stock buffer in a series of 8 from 15 uM. • 16. Solution B was prepared by adding human, mouse or porcine PLA2 to the assay buffer. This solution was prepared immediately before use to minimize enzyme activity loss. • 17. Solution C was prepared by adding 30 ul PPyrPM stock solution to 90 ul ethanol, and then all 120 ul of PPyrPM solution was transferred drop-wise over approximately 1 min to the continuously stirring 8.82 ml assay buffer to form a final concentration of 4.2 uM PPyrPM vesicle solution. • 18. The SPECTRAmax microplate spectrofluorometer was set at 37° C. • 19. 100 ul of solution A was added to each inhibition assay well of a costar 96 well black wall/clear bottom plate • 20. 100 ul of solution B was added to each inhibition assay well of a costar 96 well black wall/clear bottom plate. • 21. 100 ul of solution C was added to each inhibition assay well of a costar 96 well black wall/clear bottom plate. • 22. The plate was incubated inside the spectrofluorometer chamber for 3 min. • 23. The fluorescence was read using an excitation of 342 nm and an emission of 395 nm.
Evaluated compounds were tested in duplicate and their values were averaged to plot the inhibition curve and calculate the IC50. Compared to uninhibited controls, lower fluorescent signal at an emission of 395 nm in test reactions evidenced inhibition of PLA2. […] Compounds initially found to be active were repeated to confirm their inhibitory activity. […]

In test [2] the target is T2, mouse group 1B PLA2 (mps PLA2) (Mus musculus, UniProt Q9Z0Y2).
T2 construct: made in house; host or cells: E. coli
T2 sequence (Q9Z0Y2 23-146): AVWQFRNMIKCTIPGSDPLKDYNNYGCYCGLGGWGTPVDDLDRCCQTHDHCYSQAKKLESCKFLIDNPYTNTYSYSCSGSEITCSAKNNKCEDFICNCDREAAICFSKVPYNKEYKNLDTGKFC
Particulars: mouse pancreas secreted PLA2; for IC50: read-out: ILYPSA IC50 mps PLA2; for inhibition at 15 µM: read-out: ILYPSA % inhibition at 15 μM mps PLA2.
Description: as §1, §2
(§5) Recombinant human and mouse group 1B PLA2 were cloned and expressed in E. coli as insoluble inclusion bodies. The inclusion bodies were isolated and purified by sonicating cell pellet in lysis buffer (50 mM Tris-HCl pH 7.0, 250 mM NaCl, 0.5% Triton 100), centrifugation at 12,000×g, and washing three times in washing buffer (20 mM Tris-HCl pH 7.0, 250 mM NaCl, 0.5% Triton 100). Then the inclusion bodies were dissolved in dissolving buffer (50 mM Tris-HCl pH 7.0, 250 mM NaCl, 6 M Guanidine-HCl, 1 mM DTT) and dialyzed four times against 10 volumes of refolding buffer (20 mM Tris-HCl pH 7.0, 250 mM NaCl, 0.5M Guanidine-HCl, 5% (w/w) Glycerol, 2 mM reduced glutathione and 0.4 mM oxidized glutathione) at 4° C. The correctly refolded proteins were concentrated using Amicon Stirred cell under nitrogen pressure (<70 psi) and dialyzed against 10 volumes of 50 mM Tris-HCl pH 7.0, 250 mM NaCl and 5% (w/w) glycerol. Human and mouse group 1B PLA2 were further purified by High S ion exchange and gel filtration columns.
as §3, §4
(§6) The following procedure was performed to evaluate the inhibitory potency of the evaluated compounds. • 14. An assay buffer was prepared by adding 3 ml 3% BSA to 47 ml stock buffer. • 15. Solution A was prepared by adding serially diluted inhibitors to the assay buffer. Inhibitors were three-fold diluted in stock buffer in a series of 8 from 15 uM. • 16. Solution B was prepared by adding human, mouse or porcine PLA2 to the assay buffer. This solution was prepared immediately before use to minimize enzyme activity loss. • 17. Solution C was prepared by adding 30 ul PPyrPM stock solution to 90 ul ethanol, and then all 120 ul of PPyrPM solution was transferred drop-wise over approximately 1 min to the continuously stirring 8.82 ml assay buffer to form a final concentration of 4.2 uM PPyrPM vesicle solution. • 18. […]

Test [3] addresses T3, human group 1B PLA2 (hps PLA2) (Homo sapiens, UniProt P04054).
T3 construct: made in house; host or cells: E. coli
Particulars: human pancreas secreted PLA2; for IC50: read-out: ILYPSA IC50 hps PLA2; for inhibition at 15 µM: read-out: ILYPSA % inhibition at 15 μM hps PLA2.
Description: as §1, §2, §5, §3, §4, §6

T3 sequence (P04054 23-148): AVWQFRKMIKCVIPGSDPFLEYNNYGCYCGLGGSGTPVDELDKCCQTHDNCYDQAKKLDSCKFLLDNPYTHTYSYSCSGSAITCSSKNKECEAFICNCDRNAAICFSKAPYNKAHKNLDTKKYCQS
T1 sequence (P00592 23-146): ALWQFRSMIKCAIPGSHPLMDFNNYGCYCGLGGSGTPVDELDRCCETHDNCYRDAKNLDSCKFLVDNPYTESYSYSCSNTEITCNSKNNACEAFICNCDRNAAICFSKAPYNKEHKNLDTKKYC

With `Cc1c(C(=O)C(N)=O)c2c(OCC(=O)NS(C)(=O)=O)cccc2n1Cc1ccccc1` [ILY-IV-21, 1-Benzyl-2-methyl-4-methanesulfonamidoylmethyloxy-1H-indol-3-glyoxylamide], the IC50 in test [1] is less than 20 nM; in test [2] it was 320 nM; in test [3] it was 1160 nM.
For `Cc1c(C(=O)C(N)=O)c2c(OC(C(=O)O)C(C)C)cccc2n1Cc1ccccc1` (stereo not drawn) [ILY-IV-22, 2-(3-Aminooxalyl-1-benzyl-2-methyl-1H-indol-4-yloxy)-3-methyl-butyric acid], in that order: less than 20 nM, less than 20 nM and 70 nM.
For `Cc1c(C(=O)C(N)=O)c2c(OC(F)C(=O)O)cccc2n1Cc1ccccc1` (stereo not drawn) [ILY-IV-24, (3-Aminooxalyl-1-benzyl-2-methyl-1H-indol-4-yloxy)-fluoro-acetic acid], the IC50 in test [1] stood at 1420 nM. Also, the inhibition at 15 µM turned out to be 63.7% in test [2] and 52.4% in test [3].
Consider `Cc1ccc(S(=O)(=O)NC(=O)COc2cccc3c2c(C(=O)C(N)=O)c(C)n3Cc2ccccc2)cc1` [ILY-IV-26, 1-Benzyl-2-methyl-4-p-toluenesulfonamidoylmethyloxy-1H-indol-3-glyoxylamide], for which the values for the IC50 in test [1], in test [2] and in test [3] were 80 nM, 3090 nM and greater than 5000 nM, respectively.
On the same counts, the results for `Cc1c(C(=O)C(N)=O)c2c(OC(F)C(N)=O)cccc2n1Cc1ccccc1` (stereo not drawn) [ILY-IV-28, 2-(3-Aminooxalyl-1-benzyl-2-methyl-1H-indol-4-yloxy)-2-fluoro-acetamide] are 160 nM, 1440 nM and 2600 nM.
On the same counts, the results for `Cc1c(C(=O)C(N)=O)c2c(OCC(=O)O)ccc([N+](=O)[O-])c2n1Cc1ccccc1` [ILY-IV-29] are 20 nM, 330 nM and 1290 nM.
Turning to `Cc1c(C(=O)C(N)=O)c2c(OC(C(=O)O)c3ccccc3)cccc2n1Cc1ccccc1` (stereo not drawn) [ILY-IV-32, (3-Aminooxalyl-1-benzyl-2-methyl-1H-indol-4-yloxy)-phenyl-acetic acid], the inhibition at 15 µM in test [1] stood at 38.5%; in test [2], 47.5%; in test [3], 41.7%.
On to `Cc1c(C(=O)C(N)=O)c2c(OC(CCC(=O)O)C(=O)O)cccc2n1Cc1ccccc1` (stereo not drawn) [ILY-IV-33, 2-(3-Aminooxalyl-1-benzyl-2-methyl-1H-indol-4-yloxy)-pentanedioic acid], for which the IC50 in test [1] stood at 3760 nM. In addition, the inhibition at 15 µM amounted to 50.3% in test [2] and 35.9% in test [3].
Turning to `Cc1c(C(=O)C(N)=O)c2c(OCC(=O)O)ccc(N)c2n1Cc1ccccc1` [ILY-IV-35], the results for the IC50 in test [1], in test [2] and in test [3] were 320 nM, 1740 nM and 8840 nM, respectively.
On to `Cc1c(C(=O)C(N)=O)c2c(OCC(=O)O)ccc(NS(C)(=O)=O)c2n1Cc1ccccc1` [ILY-IV-37], for which the IC50 in test [1] turned out to be 280 nM; in test [2], 1020 nM; in test [3] it was 3480 nM.
Consider `Cc1c(C(=O)C(N)=O)c2c(OC(C(N)=O)C(C)C)cccc2n1Cc1ccccc1` (stereo not drawn) [ILY-IV-45, 2-(3-(2-amino-2-oxoacetyl)-1-benzyl-2-methyl-1H-indol-4-yloxy)-3-methylbutanamide], for which the IC50 in test [1] was 1030 nM. Moreover, the results for the inhibition at 15 µM in test [2] and in test [3] were 65.5% and 74%, respectively.
For the compound `Cc1c(C(=O)C(N)=O)c2c(OC(CC(C)C)C(=O)O)cccc2n1Cc1ccccc1` (stereo not drawn) [ILY-IV-47, 2-(3-Aminooxalyl-1-benzyl-2-methyl-1H-indol-4-yloxy)-4-methyl-pentanoic acid], the IC50 came out at 20 nM in test [1], 2430 nM in test [2] and 2940 nM in test [3].
As for `Cc1c(C(=O)C(N)=O)c2c(OC(F)(C(=O)O)C(F)(F)Br)cccc2n1Cc1ccccc1` (stereo not drawn) [ILY-IV-55, 2-(3-(2-amino-2-oxoacetyl)-1-benzyl-2-methyl-1H-indol-4-yloxy)-3-bromo-2,3,3-trifluoropropanoic acid], the inhibition at 15 µM in test [1] came out at 74.5%; in test [2], 42.6%; in test [3] it was 34%.
For `COC(=O)C(Oc1cccc2c1c(C(=O)C(N)=O)c(C)n2Cc1ccccc1)C(=O)O` (stereo not drawn) [ILY-IV-59], in that order: 56.8%, 35.7% and 10.2%.
On to `CCCCCCCCn1c(C)c(C(=O)C(N)=O)c2c(OCC(=O)O)cccc21` [ILY-V-2], for which the IC50 in test [1] was 30 nM; in test [2], 210 nM; in test [3], 640 nM.
For `Cc1c(C(=O)C(N)=O)c2c(OCC(=O)O)cccc2n1Cc1ccc(-c2ccccc2)cc1` [ILY-V-3], in that order: 210 nM, 770 nM and 1260 nM.
For `COc1cccc(Cn2c(C)c(C(=O)C(N)=O)c3c(OCC(=O)O)cccc32)c1` [ILY-V-8], in that order: 40 nM, 970 nM and 3250 nM.
For `Cc1c(C(=O)C(N)=O)c2c(OCC(=O)O)cccc2n1Cc1ccc2ccccc2c1` [ILY-V-9], in that order: 60 nM, 710 nM and 2110 nM.
`C=CCn1c(C)c(C(=O)C(N)=O)c2c(OCC(=O)O)cccc21` [ILY-V-10]: the IC50 amounted to 460 nM in test [1] and 3210 nM in test [2]. Besides, the inhibition at 15 µM in test [3] was found to be 64%.

Usually IC50 stands for the concentration needed to halve the response being measured. By inhibition is commonly meant the share of the control response that was lost under treatment.
